Assays:
Assay in all cases: relative viability (nuclei count vs DMSO), 5 days (fraction); higher = more cells survive
Veliparib + Olaparib = compound: C[C@]1(c2nc3c(C(N)=O)cccc3[nH]2)CCCN1 [Veliparib] + O=C(c1cc(Cc2n[nH]c(=O)c3ccccc23)ccc1F)N1CCN(C(=O)C2CC2)CC1 [Olaparib] (partner 8 µM)
In short: (§1)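 Lung cancer cell lines were pin-tool dosed in 1536-well plates on the day after seeding, with either a lone drug or a fixed anchor-drug dose plus five library-drug doses (not always all listed) in √10 steps. Nuclei were counted on 4× images after 5 days. Relative viability is the ratio of treated-well to vehicle-well nuclei counts, with each value a median of duplicate plates.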

[1] = compound: COC1=CC=C(C=C1)CN2C=CC3=C2C=C(C=C3)C(=O)NO + COc1cc2c(Oc3ccc(NC(=O)C4(C(=O)Nc5ccc(F)cc5)CC4)cc3F)ccnc2cc1OCCCN1CCOCC1 [Foretinib] (partner 0.25 µM)
In short: as §1

Veliparib + Dasatinib = compound: C[C@]1(c2nc3c(C(N)=O)cccc3[nH]2)CCCN1 [Veliparib] + Cc1nc(Nc2ncc(C(=O)Nc3c(C)cccc3Cl)s2)cc(N2CCN(CCO)CC2)n1 [Dasatinib] (partner 0.075 µM)
In short: as §1

[2] = compound: COC1=CC=C(C=C1)CN2C=CC3=C2C=C(C=C3)C(=O)NO + CS(=O)(=O)CCNCc1ccc(-c2ccc3ncnc(Nc4ccc(OCc5cccc(F)c5)c(Cl)c4)c3c2)o1 [Lapatinib] (partner 2 µM)
In short: as §1

## SW 1573
Veliparib + Olaparib; first compound 0.02 µM
  relative viability: 0.57
Veliparib + Olaparib; first compound 0.06325 µM
  relative viability: 0.428
Veliparib + Olaparib; first compound 0.2 µM
  relative viability: 0.464
Veliparib + Olaparib; first compound 0.6325 µM
  relative viability: 0.42
Veliparib + Olaparib; first compound 2 µM
  relative viability: 0.442
[1]; first compound 0.253 µM
  relative viability: 0.877
[1]; first compound 0.8 µM
  relative viability: 0.865
[1]; first compound 2.53 µM
  relative viability: 0.751
[1]; first compound 8 µM
  relative viability: 0.694
Veliparib + Dasatinib; first compound 0.06325 µM
  relative viability: 0.659
Veliparib + Dasatinib; first compound 0.2 µM
  relative viability: 0.38
Veliparib + Dasatinib; first compound 0.6325 µM
  relative viability: 0.391
Veliparib + Dasatinib; first compound 2 µM
  relative viability: 0.439
[2]; first compound 0.253 µM
  relative viability: 1.07
[2]; first compound 0.8 µM
  relative viability: 1.36
[2]; first compound 2.53 µM
  relative viability: 1.2
[2]; first compound 8 µM
  relative viability: 0.859
